Reference: PubChem BioAssay (NCI)
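The compound was tested at five concentrations on cells cultured in 96-well plates, with a 48-hour exposure period. GI50: concentration for 50% inhibition of growth. At the TGI there is no net growth.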

Legend:
Assay in all cases: inhibition of tumour cell growth, NCI panel, 48 h
786-0 renal = test system: 786-0 renal
A498 renal = test system: A498 renal
A549 NSCLC = test system: A549 NSCLC
ACHN renal = test system: ACHN renal
BT-549 breast = test system: BT-549 breast
CAKI-1 renal = test system: CAKI-1 renal
CCRF-CEM leukemia = test system: CCRF-CEM leukemia
COLO 205 colon = test system: COLO 205 colon
DU-145 prostate = test system: DU-145 prostate
EKVX NSCLC = test system: EKVX NSCLC
HCC-2998 colon = test system: HCC-2998 colon
HCT-116 colon = test system: HCT-116 colon
HCT-15 colon = test system: HCT-15 colon
HL-60(TB) leukemia = test system: HL-60(TB) leukemia
HOP-62 NSCLC = test system: HOP-62 NSCLC
HS 578T breast = test system: HS 578T breast
HT29 colon = test system: HT29 colon
IGROV1 ovarian = test system: IGROV1 ovarian
K-562 leukemia = test system: K-562 leukemia
KM12 colon = test system: KM12 colon
LOX IMVI melanoma = test system: LOX IMVI melanoma
M14 melanoma = test system: M14 melanoma
MALME-3M melanoma = test system: MALME-3M melanoma
MCF7 breast = test system: MCF7 breast
MDA-MB-231 breast = test system: MDA-MB-231 breast
MDA-MB-435 = test system: MDA-MB-435
MOLT-4 leukemia = test system: MOLT-4 leukemia
NCI-H226 lung = test system: NCI-H226 lung
NCI-H23 lung = test system: NCI-H23 lung
NCI-H460 lung = test system: NCI-H460 lung
NCI-H522 lung = test system: NCI-H522 lung
NCI/ADR-RES ovarian = test system: NCI/ADR-RES ovarian
OVCAR-3 ovarian = test system: OVCAR-3 ovarian
OVCAR-4 ovarian = test system: OVCAR-4 ovarian
OVCAR-5 ovarian = test system: OVCAR-5 ovarian
OVCAR-8 ovarian = test system: OVCAR-8 ovarian
PC-3 prostate = test system: PC-3 prostate
RPMI-8226 leukemia = test system: RPMI-8226 leukemia
RXF 393 renal = test system: RXF 393 renal
SF-268 CNS = test system: SF-268 CNS
SF-295 CNS = test system: SF-295 CNS
SF-539 CNS = test system: SF-539 CNS
SK-MEL-2 melanoma = test system: SK-MEL-2 melanoma
SK-MEL-28 melanoma = test system: SK-MEL-28 melanoma
SK-MEL-5 melanoma = test system: SK-MEL-5 melanoma
SK-OV-3 ovarian = test system: SK-OV-3 ovarian
SN12C renal = test system: SN12C renal
SNB-19 CNS = test system: SNB-19 CNS
SNB-75 CNS = test system: SNB-75 CNS
SR leukemia = test system: SR leukemia
SW-620 colon = test system: SW-620 colon
T-47D breast = test system: T-47D breast
TK-10 renal = test system: TK-10 renal
U251 CNS = test system: U251 CNS
UACC-257 melanoma = test system: UACC-257 melanoma
UACC-62 melanoma = test system: UACC-62 melanoma
UO-31 renal = test system: UO-31 renal

COc1ccc2c(c1)CC[C@@H]1[C@@H]2CC[C@]2(C)C(c3ccsc3)=C(/C=C/C(=O)c3ccccc3)C[C@@H]12
GI50 (786-0 renal): > 100 µM | TGI (786-0 renal): > 100 µM | GI50 (A498 renal): > 100 µM | TGI (A498 renal): > 100 µM | GI50 (A549 NSCLC): > 100 µM | TGI (A549 NSCLC): > 100 µM | GI50 (ACHN renal): > 100 µM | TGI (ACHN renal): > 100 µM | GI50 (BT-549 breast): > 100 µM | TGI (BT-549 breast): > 100 µM | GI50 (CAKI-1 renal): > 100 µM | TGI (CAKI-1 renal): > 100 µM | GI50 (CCRF-CEM leukemia): > 100 µM | TGI (CCRF-CEM leukemia): > 100 µM | GI50 (COLO 205 colon): > 100 µM | TGI (COLO 205 colon): > 100 µM | GI50 (DU-145 prostate): > 100 µM | TGI (DU-145 prostate): > 100 µM | GI50 (EKVX NSCLC): > 100 µM | TGI (EKVX NSCLC): > 100 µM | GI50 (HCC-2998 colon): 67.4 µM | TGI (HCC-2998 colon): > 100 µM | GI50 (HCT-116 colon): > 100 µM | TGI (HCT-116 colon): > 100 µM | GI50 (HCT-15 colon): > 100 µM | TGI (HCT-15 colon): > 100 µM | GI50 (HL-60(TB) leukemia): 13.4 µM | TGI (HL-60(TB) leukemia): > 100 µM | GI50 (HOP-62 NSCLC): > 100 µM | TGI (HOP-62 NSCLC): > 100 µM | GI50 (HS 578T breast): > 100 µM | TGI (HS 578T breast): > 100 µM | GI50 (HT29 colon): > 100 µM | TGI (HT29 colon): > 100 µM | GI50 (IGROV1 ovarian): > 100 µM | TGI (IGROV1 ovarian): > 100 µM | GI50 (K-562 leukemia): > 100 µM | TGI (K-562 leukemia): > 100 µM | GI50 (KM12 colon): > 100 µM | TGI (KM12 colon): > 100 µM | GI50 (LOX IMVI melanoma): > 100 µM | TGI (LOX IMVI melanoma): > 100 µM | GI50 (M14 melanoma): > 100 µM | TGI (M14 melanoma): > 100 µM | GI50 (MALME-3M melanoma): > 100 µM | TGI (MALME-3M melanoma): > 100 µM | GI50 (MCF7 breast): > 100 µM | TGI (MCF7 breast): > 100 µM | GI50 (MDA-MB-231 breast): > 100 µM | TGI (MDA-MB-231 breast): > 100 µM | GI50 (MDA-MB-435): > 100 µM | TGI (MDA-MB-435): > 100 µM | GI50 (MOLT-4 leukemia): 2670 nM | TGI (MOLT-4 leukemia): > 100 µM | GI50 (NCI-H226 lung): > 100 µM | TGI (NCI-H226 lung): > 100 µM | GI50 (NCI-H23 lung): > 100 µM | TGI (NCI-H23 lung): > 100 µM | GI50 (NCI-H460 lung): > 100 µM | TGI (NCI-H460 lung): > 100 µM | GI50 (NCI-H522 lung): > 100 µM | TGI (NCI-H522 lung): > 100 µM | GI50 (NCI/ADR-RES ovarian): > 100 µM | TGI (NCI/ADR-RES ovarian): > 100 µM | GI50 (OVCAR-3 ovarian): > 100 µM | TGI (OVCAR-3 ovarian): > 100 µM | GI50 (OVCAR-4 ovarian): > 100 µM | TGI (OVCAR-4 ovarian): > 100 µM | GI50 (OVCAR-5 ovarian): > 100 µM | TGI (OVCAR-5 ovarian): > 100 µM | GI50 (OVCAR-8 ovarian): > 100 µM | TGI (OVCAR-8 ovarian): > 100 µM | GI50 (PC-3 prostate): 39 µM | TGI (PC-3 prostate): > 100 µM | GI50 (RPMI-8226 leukemia): 50.3 µM | TGI (RPMI-8226 leukemia): > 100 µM | GI50 (RXF 393 renal): > 100 µM | TGI (RXF 393 renal): > 100 µM | GI50 (SF-268 CNS): > 100 µM | TGI (SF-268 CNS): > 100 µM | GI50 (SF-295 CNS): > 100 µM | TGI (SF-295 CNS): > 100 µM | GI50 (SF-539 CNS): > 100 µM | TGI (SF-539 CNS): > 100 µM | GI50 (SK-MEL-2 melanoma): > 100 µM | TGI (SK-MEL-2 melanoma): > 100 µM | GI50 (SK-MEL-28 melanoma): > 100 µM | TGI (SK-MEL-28 melanoma): > 100 µM | GI50 (SK-MEL-5 melanoma): > 100 µM | TGI (SK-MEL-5 melanoma): > 100 µM | GI50 (SK-OV-3 ovarian): > 100 µM | TGI (SK-OV-3 ovarian): > 100 µM | GI50 (SN12C renal): > 100 µM | TGI (SN12C renal): > 100 µM | GI50 (SNB-19 CNS): > 100 µM | TGI (SNB-19 CNS): > 100 µM | GI50 (SNB-75 CNS): > 100 µM | TGI (SNB-75 CNS): > 100 µM | GI50 (SR leukemia): 19.9 µM | TGI (SR leukemia): > 100 µM | GI50 (SW-620 colon): > 100 µM | TGI (SW-620 colon): > 100 µM | GI50 (T-47D breast): > 100 µM | TGI (T-47D breast): > 100 µM | GI50 (TK-10 renal): > 100 µM | TGI (TK-10 renal): > 100 µM | GI50 (U251 CNS): > 100 µM | TGI (U251 CNS): > 100 µM | GI50 (UACC-257 melanoma): > 100 µM | TGI (UACC-257 melanoma): > 100 µM | GI50 (UACC-62 melanoma): > 100 µM | TGI (UACC-62 melanoma): > 100 µM | GI50 (UO-31 renal): > 100 µM | TGI (UO-31 renal): > 100 µM
